Drawing on BindingDB's records for PubMed 39740572 (Washington University School of Medicine), this text covers IC50 for one compound.

The assay addresses T1, P2X purinoceptor 7 (Homo sapiens, UniProt Q99572).
T1 sequence (Q99572 whole entry): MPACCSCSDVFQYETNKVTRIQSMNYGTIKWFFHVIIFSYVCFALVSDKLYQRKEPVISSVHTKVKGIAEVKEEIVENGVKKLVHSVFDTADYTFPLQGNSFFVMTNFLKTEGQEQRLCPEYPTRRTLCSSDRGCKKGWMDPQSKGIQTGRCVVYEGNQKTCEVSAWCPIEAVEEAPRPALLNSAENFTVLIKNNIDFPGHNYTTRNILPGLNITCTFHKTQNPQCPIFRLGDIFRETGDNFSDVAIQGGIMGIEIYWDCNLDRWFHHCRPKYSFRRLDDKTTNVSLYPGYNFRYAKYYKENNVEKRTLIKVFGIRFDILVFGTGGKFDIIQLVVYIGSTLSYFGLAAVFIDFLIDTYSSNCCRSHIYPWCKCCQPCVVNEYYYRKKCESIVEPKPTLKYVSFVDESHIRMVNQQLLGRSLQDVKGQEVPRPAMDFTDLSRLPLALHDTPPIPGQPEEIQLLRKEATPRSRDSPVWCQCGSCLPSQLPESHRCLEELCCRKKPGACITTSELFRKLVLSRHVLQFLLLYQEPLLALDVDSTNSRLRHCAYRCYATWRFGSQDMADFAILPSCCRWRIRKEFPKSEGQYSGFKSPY
The assay is described as follows: Binding affinity to human P2X7 receptor expressed in HEK293 cells assessed as inhibition of BzATP-induced increase in ethidium bromide uptake by fluorescence plate reader analysis.

For orientation: IC50 means the concentration that gives 50% inhibition. Consider `O=C(NCc1cccc(C(F)(F)F)c1Cl)[C@@H]1CCC(=O)N1C/C=C/I`, for which the IC50 is 9.8 nM.
